Experimental findings from US20260014144A1, “USE OF OV[…] PHARMACEUTICAL COMPOSITION THEREOF IN PREVENTION AND TREATMENT OF RENAL FIBROSIS” (ZHUJIANG HOSPITAL OF SOUTHERN MEDICAL UNIVERSITY, priority 2022, published 2026) are described below.

The structures appear in SMILES notation. Where a name gives a salt, the structure may show the parent alone.

For assay [1], the system named is unilateral ureteral obstruction (UUO) RF animal model. As to the kind of experiment: Therapeutic effect of ACT004 in unilateral ureteral obstruction (UUO) renal fibrosis mouse model. Particulars: UUO mice. Type of assay: in vivo. The method, then:
(§1) Sixty 8-week-old C57 mice (SPF grade) were supplied by the Laboratory Animal Center of Zhujiang Hospital, Southern Medical University, Guangzhou. Before the experiment, the animals were acclimated to the indoor environment for 7 days at a room temperature of 18-22° C. and a relative humidity of 65%. All mice had free access to water and were fed with regular feed (protein content: 3.14 mg/g).
Method for constructing UUO model: Under anesthesia with intraperitoneal injection of tribromoethanol, the surgical area for abdominal midline incision was shaved and disinfected. After making the abdominal midline incision, the left ureter was located, and the upper segment of the ureter was isolated. A complete ureteral obstruction was induced by double ligation using 4-0 silk sutures (UUO group). For mice in the sham group, the ureter was similarly exposed and isolated, but no ligation was performed. Layered suturing of the abdominal incision was performed, followed by disinfection with iodophor. Mice subjected to UUO surgery were randomly divided into the following 5 groups: a UUO group, a UUO+low-dose ACT004 (12.5 mg/kg·d) group, a UUO+medium-dose ACT004 (25 mg/kg·d) group, a UUO+high-dose ACT004 (50 mg/kg·d) group, and a sham group, with 6 mice in each group. Starting from day 4 after the surgery, intragastric administration was performed. The sham group and the UUO groups were given an equal volume of normal saline as a control treatment. On day 11 after the surgery, the left kidney tissues were collected.
(§2) According to the results of the preliminary experiment, the medium dose of ACT004 for mice was 25 mg/kg·d. Therefore, low-dose (12.5 mg/kg·d), medium-dose (25 mg/kg·d) and high-dose (50 mg/kg·d) groups were set. ACT004 was prepared into a solution using normal saline, and intragastrically administered once daily starting on day 4 after the surgery for a duration of 1 week. Mice in the sham, UUO and IRI groups were subjected to intragastric administration with an equal amount of normal saline for a duration of 1 week.
(§3) After 1 week of intragastric administration, kidney tissues were collected as follows: Anesthesia was conducted using single intraperitoneal injection of tribromoethanol at a concentration of 200 mg/kg. Blood was collected by enucleation, and serum was separated and stored at −20° C. or −70° C. An abdominal incision was made, and sterile gauze was used to move aside abdominal organs. Cold PBS was perfused through the heart until the organs turned white. Kidney tissues were then collected. The entire left kidney was weighed, then bisected along the median sagittal plane, and washed thoroughly with PBS, and the capsule was removed. The tissue was then fixed in 10% neutral formaldehyde buffer for subsequent pathological examination.
(§4) 2.2.1.4.1 Renal pathology: Masson staining was used to observe the renal pathological structures and collagen fiber deposition.
(§5) 2.2.1.4.2 Protein level detection: Ras GTPase superfamily member RALB, EMT-related index a-SMA, and fibrosis phenotype-related indexes Fibronectin and Collagen I.

In assay [2] the test system is renal tubular epithelial cells (NRK). As to the kind of experiment: Effect of ACT004 on TGF-β1-induced EMT in renal tubular epithelial cells. Type of assay: cell-based, mouse. The method, then:
The immortalized mouse-derived renal tubular epithelial cell line was provided by the Professor Nie Xiaoli's research team at the School of Traditional Chinese Medicine, Southern Medical University.
The addition of TGF-β1 was accompanied by the administration of different concentrations of ACT004 intervention (2.5 μM, 5 μM, and 10 μM). The cells were divided into the following 6 groups: a blank control group, a blank control+ACT004 (5 μM) group, a TGF-β1 model group, and groups for TGF-β1+ different concentrations of ACT004 intervention (2.5 μM, 5 μM, and 10 µM).
Protein level detection: Ras GTPase superfamily member RALB, EMT-related index α-SMA, and fibrosis phenotype-related indexes Fibronectin and Collagen I.

Assay [3] deals with ischemia-reperfusion injury (IRI) RF animal model. Kind of assay: Therapeutic effect of ACT004 in ischemia-reperfusion injury (IRI) renal fibrosis mouse model. Type of assay: in vivo. As to conditions: IRI mice. The method, then: as §1
Method for constructing IRI model: Mice were anesthetized intraperitoneally with tribromoethanol. An abdominal midline incision or dorsal incision was made. The left renal vein was isolated, while the renal artery was clamped using an arterial clip. The mice were placed on a constant-temperature pad at 37.5° C. for 30 min, and the incision was covered with PBS-moistened gauze. After 30 min, the arterial clip was released, and the abdomen was closed after the recovery of renal congestion was observed. Mice subjected to IRI surgery were randomly divided into the following 5 groups: an IRI group, an IRI+low-dose ACT004 (12.5 mg/kg·d) group, an IRI+medium-dose ACT004 (25 mg/kg·d) group, an IRI+high-dose ACT004 (50 mg/kg·d) group, and a sham group, with 6 mice in each group. Starting from day 4 after the surgery, intragastric administration was performed. The sham group and the IRI groups were given an equal volume of normal saline as a control treatment. On day 10 after the surgery, the right kidney was removed, and on day 11 day after the surgery, the left kidney tissues were collected.
as §2, §3, §4, §5

Setting [4] is: ACT004 12.5, 25, 50 mg/kg·d intragastric once daily from day 4 for 1 week, left kidney day 11, FIG. 1A.
[5] abbreviates: ACT004 intragastric 1 week, FIG. 1B.
Setting [6] is: ACT004 intragastric 1 week, FIG. 1C, statistically significant (p<0.05).
[7] abbreviates: ACT004 treatment groups, FIG. 3A.

Turning to `C/C1=C\[C@H]2OC(=O)[C@H](CN3CCN(C)CC3)[C@@H]2CC[C@]2(C)O[C@H]2CCC2=C[C@H](C1)OC2=O` [ACT004, (1aS,4Z,7S,9E,10aS,13S,13aS,15aS)-9,15a-dimethyl-13-((4-methylpiperazin-1-yl)methyl)-1a,2,3,8,10a,13,13a,14,15,15a-decahydro-5H-4,7-(metheno) furo [2,3-f]oxireno [2,3-j][1]oxacyclopentadecine-5, 12 (7H)-dione fumarate], the “Masson staining: renal interstitial expansion, extracellular matrix deposition, increased collagen fibers, inflammatory cell infiltration” value in assay [1] (setting [4]) and in assay [3] (setting [4]) was “significantly reduced” in each case. For the same compound, the “Immunohistochemical staining: expression of Fibronectin, Collagen I, and α-SMA in kidney tissue” value in assay [1] (setting [5]) and in assay [3] (setting [5]) was “inhibitory effect” throughout. In addition, the “Western blot: protein expression levels of Fibronectin, Collagen I, and α-SMA in kidney tissue” value in assay [1] (setting [6]) and in assay [3] (setting [6]) was “inhibit the progression of RF” in each case. For the same compound, the “Western blot: expression levels of p-Smad2, p-Smad3, p-Stat3, and p-NFκB in kidney tissues” value in assay [1] (ACT004 treatment groups, FIG. 2A) is recorded as “significantly reduced”; in assay [3] (ACT004 treatment groups, FIG. 2B) it was “significantly reduced”. Further, the “Western blot: expression level of RALB in kidney tissues” value in assay [1] (setting [7]) and in assay [3] (setting [7]) was “significantly reduced” each time. Further, the “Western blot: protein expression levels of Fibronectin, Collagen I, and α-SMA in TGFβ1-induced renal tubular epithelial cells” value in assay [2] (TGF-β1 10 ng/uL, 48 h, ACT004 2.5, 5, 10 μM, FIG. 1D, statistically significant (p<0.05)) was “inhibit the progression of RF”. The “Western blot: expression levels of p-Smad2, p-Smad3, p-Stat3, and p-NFκB in renal tubular epithelial cells induced by TGF-β1” value in assay [2] (different concentrations of ACT004, TGF-β1 induction for 1 h, FIG. 2C, statistically significant) is “reduced”.
